Laboratory results taken from ChEMBL document CHEMBL4118220, “Design, synthesis and biological evaluation of phosphopeptides as Polo-like kinase 1 Polo-box domain inhibitors” (Bioorg Med Chem, 2018).
Square brackets hold non-standard residues; d marks the D form. Peptide text beside a SMILES is read from it. Phe(4-NO2) = N[C@@H](Cc1ccc([N+](=O)[O-])cc1)C(=O)O; Phe(3,4-Cl2) = N[C@@H](Cc1ccc(Cl)c(Cl)c1)C(=O)O; Phe(4-F) = N[C@@H](Cc1ccc(F)cc1)C(=O)O; pT = C[C@@H](OP(=O)(O)O)[C@H](N)C(=O)O

Columns and labels:
[1] = biological target: Serine/threonine-protein kinase PLK2 (Homo sapiens, UniProt Q9NYY3); assay: Inhibition of FITC-GPMQTSpTPKNG-OH binding to Plk2 PBD (unknown origin) after 30 mins by fluorescence polarization assay
Serine/threonine-protein kinase PLK2, sequence (Q9NYY3 whole entry): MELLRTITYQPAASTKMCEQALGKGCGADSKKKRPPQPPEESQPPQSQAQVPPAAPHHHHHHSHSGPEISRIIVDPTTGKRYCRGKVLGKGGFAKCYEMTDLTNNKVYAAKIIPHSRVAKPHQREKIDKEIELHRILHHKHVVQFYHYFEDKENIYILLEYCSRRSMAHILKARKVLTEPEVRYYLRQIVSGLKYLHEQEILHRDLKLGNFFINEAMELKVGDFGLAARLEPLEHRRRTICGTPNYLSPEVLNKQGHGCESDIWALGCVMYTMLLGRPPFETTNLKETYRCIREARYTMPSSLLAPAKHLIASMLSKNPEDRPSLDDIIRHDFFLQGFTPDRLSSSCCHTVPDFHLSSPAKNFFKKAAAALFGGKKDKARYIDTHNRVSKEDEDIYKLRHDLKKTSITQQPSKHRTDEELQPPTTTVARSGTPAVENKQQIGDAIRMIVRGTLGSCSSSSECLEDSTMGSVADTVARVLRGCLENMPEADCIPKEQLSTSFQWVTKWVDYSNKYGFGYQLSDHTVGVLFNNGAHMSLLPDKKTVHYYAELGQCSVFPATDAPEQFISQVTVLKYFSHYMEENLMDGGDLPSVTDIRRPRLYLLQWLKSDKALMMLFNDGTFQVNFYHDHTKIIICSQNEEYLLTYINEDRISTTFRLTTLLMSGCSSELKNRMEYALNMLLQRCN

[2] = biological target: Serine/threonine-protein kinase PLK3 (Homo sapiens, UniProt Q9H4B4); assay: Inhibition of FITC-GPLATSpTPKNG-OH binding to Plk3 PBD (unknown origin) after 30 mins by fluorescence polarization assay
Serine/threonine-protein kinase PLK3, sequence (Q9H4B4 whole entry): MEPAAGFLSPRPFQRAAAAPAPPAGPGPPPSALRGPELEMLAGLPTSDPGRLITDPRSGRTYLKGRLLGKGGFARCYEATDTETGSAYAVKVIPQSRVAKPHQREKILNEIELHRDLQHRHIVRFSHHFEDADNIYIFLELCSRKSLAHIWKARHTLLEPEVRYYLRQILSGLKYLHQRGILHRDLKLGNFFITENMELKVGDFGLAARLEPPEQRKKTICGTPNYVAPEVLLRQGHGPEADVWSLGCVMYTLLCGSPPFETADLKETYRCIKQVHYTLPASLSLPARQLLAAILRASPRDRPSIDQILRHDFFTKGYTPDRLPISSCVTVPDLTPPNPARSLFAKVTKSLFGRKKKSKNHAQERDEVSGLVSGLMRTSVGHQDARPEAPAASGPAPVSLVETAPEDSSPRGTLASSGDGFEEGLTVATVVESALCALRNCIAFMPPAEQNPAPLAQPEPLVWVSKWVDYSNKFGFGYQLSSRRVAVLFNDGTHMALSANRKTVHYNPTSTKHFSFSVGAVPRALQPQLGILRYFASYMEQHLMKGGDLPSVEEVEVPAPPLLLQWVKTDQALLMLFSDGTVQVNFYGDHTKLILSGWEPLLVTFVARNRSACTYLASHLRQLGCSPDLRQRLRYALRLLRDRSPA

IC50 [1] | IC50 [2] | IC50 ([1]; read-out: IC50) | SMILES
Not Active | Not Active |  | CC[C@H](C)[C@H](NC(=O)[C@H](C)NC(=O)[C@@H](NC(=O)[C@H](CO)NC(=O)[C@H](Cc1cnc[nH]1)NC(=O)[C@H](CC(C)C)NC(=O)[C@@H]1CCCN1C(=O)[C@@H]1CCCN1C(=O)[C@H](CC(=O)O)NC(=O)[C@H](Cc1ccc(F)cc1)NC(=O)[C@@H](NC(=O)[C@H](CCC(N)=O)NC(C)=O)[C@@H](C)O)[C@@H](C)OP(=O)(O)O)C(=O)N[C@@H](Cc1ccc(O)cc1)C(=O)N[C@@H](C)C(=O)N[C@@H](CC(N)=O)C(N)=O (Ac-QT[Phe(4-F)]DPPLHS[pT]AIYAN-NH2)
Not Active | Not Active |  | CC[C@H](C)[C@H](NC(=O)[C@H](C)NC(=O)[C@@H](NC(=O)[C@H](CO)NC(=O)[C@H](Cc1cnc[nH]1)NC(=O)[C@H](CC(C)C)NC(=O)[C@@H]1CCCN1C(=O)[C@@H]1CCCN1C(=O)[C@H](CC(=O)O)NC(=O)[C@H](Cc1ccc([N+](=O)[O-])cc1)NC(=O)[C@@H](NC(=O)[C@H](CCC(N)=O)NC(C)=O)[C@@H](C)O)[C@@H](C)OP(=O)(O)O)C(=O)N[C@@H](Cc1ccc(O)cc1)C(=O)N[C@@H](C)C(=O)N[C@@H](CC(N)=O)C(N)=O (Ac-QT[Phe(4-NO2)]DPPLHS[pT]AIYAN-NH2)
Not Active | Not Active |  | CC[C@H](C)[C@H](NC(=O)[C@H](C)NC(=O)[C@@H](NC(=O)[C@H](CO)NC(=O)[C@H](Cc1cnc[nH]1)NC(=O)[C@H](CC(C)C)NC(=O)[C@@H]1CCCN1C(=O)[C@@H]1CCCN1C(=O)[C@H](CC(=O)O)NC(=O)[C@H](Cc1ccc(Cl)c(Cl)c1)NC(=O)[C@@H](NC(C)=O)[C@@H](C)O)[C@@H](C)OP(=O)(O)O)C(=O)N[C@@H](Cc1ccc(O)cc1)C(=O)N[C@@H](C)C(=O)N[C@@H](CC(N)=O)C(N)=O (Ac-T[Phe(3,4-Cl2)]DPPLHS[pT]AIYAN-NH2)

Further lines, the compound ahead of its results:

SMILES | IC50 [1] | IC50 [2] | IC50 ([1]; read-out: IC50)
CC[C@H](C)[C@H](NC(=O)[C@H](C)NC(=O)[C@@H](NC(=O)[C@H](CO)NC(=O)[C@H](Cc1cnc[nH]1)NC(=O)[C@H](CC(C)C)NC(=O)[C@@H]1CCCN1C(=O)[C@@H]1CCCN1C(=O)[C@H](CC(=O)O)NC(=O)[C@H](Cc1ccc(Cl)c(Cl)c1)NC(=O)[C@H](CCC(N)=O)NC(C)=O)[C@@H](C)O)C(=O)N[C@@H](Cc1ccc(O)cc1)C(=O)N[C@@H](C)C(=O)N[C@@H](CC(N)=O)C(N)=O (Ac-Q[Phe(3,4-Cl2)]DPPLHSTAIYAN-NH2) | Not Active | Not Active | 
CC[C@H](C)[C@H](NC(=O)[C@H](C)NC(=O)[C@@H](NC(=O)[C@H](CO)NC(=O)[C@H](Cc1cnc[nH]1)NC(=O)[C@H](CC(C)C)NC(=O)[C@@H]1CCCN1C(=O)[C@@H]1CCCN1C(=O)[C@H](CC(=O)O)NC(=O)[C@H](Cc1ccc(Cl)c(Cl)c1)NC(C)=O)[C@@H](C)OP(=O)(O)O)C(=O)N[C@@H](Cc1ccc(O)cc1)C(=O)N[C@@H](C)C(=O)N[C@@H](CC(N)=O)C(N)=O (Ac-[Phe(3,4-Cl2)]DPPLHS[pT]AIYAN-NH2) |  | Not Active | 716 nM
